According to BindingDB's records for doi:10.1021/acs.jnatprod.6b00597 (Chang Gung Memorial Hospital, 2016):

Assays:
[1] = Inhibition of human ABCB1 expressed in NCI-ADR-RES cells assessed as potentiation of doxorubicin-induced cytotoxicity by measuring doxorubicin IC50 at 1000 nM after 72 hrs by MTT assay (Rvb = 5.54 +/- 0.60 uM)
[2] = Inhibition of human ABCB1 expressed in NCI-ADR-RES cells assessed as potentiation of colchicine-induced cytotoxicity by measuring colchicine IC50 at 1000 nM after 72 hrs by MTT assay (Rvb = 1607.50 +/- 497.42 nM)
[3] = Inhibition of human ABCB1 expressed in KBV1 cells assessed as potentiation of doxorubicin-induced cytotoxicity by measuring doxorubicin IC50 at 1000 nM after 72 hrs by MTT assay (Rvb = 5.07 +/- 0.19 uM)
[4] = Inhibition of human ABCB1 expressed in NCI-ADR-RES cells assessed as potentiation of vincristine-induced cytotoxicity by measuring vincristine IC50 at 1000 nM after 72 hrs by MTT assay (Rvb = 3714.80 +/- 383.58 nM)
[5] = Inhibition of human ABCB1 expressed in KBV1 cells assessed as potentiation of vincristine-induced cytotoxicity by measuring vincristine IC50 at 1000 nM after 72 hrs by MTT assay (Rvb = 277.68 +/- 56.61 nM)
[6] = Inhibition of human ABCB1 transfected in HEK293 cells assessed as potentiation of doxorubicin-induced cytotoxicity by measuring doxorubicin IC50 at 1000 nM after 72 hrs by CCK8 assay (Rvb = 504.65 +/- 44.94 nM)
[7] = Inhibition of human ABCB1 expressed in KBV1 cells assessed as potentiation of vincristine-induced cytotoxicity by measuring vincristine IC50 at 100 nM after 72 hrs by MTT assay (Rvb = 277.68 +/- 56.61 nM)
[8] = Inhibition of human ABCB1 transfected in HEK293 cells assessed as potentiation of doxorubicin-induced cytotoxicity by measuring doxorubicin IC50 at 100 nM after 72 hrs by CCK8 assay (Rvb = 504.65 +/- 44.94 nM)
[9] = Inhibition of human ABCB1 transfected in HEK293 cells assessed as potentiation of doxorubicin-induced cytotoxicity by measuring doxorubicin IC50 at 200 nM after 72 hrs by CCK8 assay (Rvb = 504.65 +/- 44.94 nM)
[10] = Inhibition of human ABCC1 transfected in HEK293 cells assessed as potentiation of etoposide-induced cytotoxicity by measuring etoposide IC50 at 500 nM after 72 hrs by CCK8 assay (Rvb = 38.54 +/- 5.62 nM)
[11] = Inhibition of human ABCB1 expressed in NCI-ADR-RES cells assessed as potentiation of colchicine-induced cytotoxicity by measuring colchicine IC50 at 50 nM after 72 hrs by MTT assay (Rvb = 1607.50 +/- 497.42 nM)
[12] = Inhibition of human ABCB1 expressed in KBV1 cells assessed as potentiation of vincristine-induced cytotoxicity by measuring vincristine IC50 at 500 nM after 72 hrs by MTT assay (Rvb = 277.68 +/- 56.61 nM)
[13] = Inhibition of human ABCB1 expressed in NCI-ADR-RES cells assessed as potentiation of colchicine-induced cytotoxicity by measuring colchicine IC50 at 200 nM after 72 hrs by MTT assay (Rvb = 1607.50 +/- 497.42 nM)
[14] = Inhibition of human ABCB1 expressed in NCI-ADR-RES cells assessed as potentiation of colchicine-induced cytotoxicity by measuring colchicine IC50 at 100 nM after 72 hrs by MTT assay (Rvb = 1607.50 +/- 497.42 nM)
[15] = Inhibition of human ABCB1 expressed in KBV1 cells assessed as potentiation of doxorubicin-induced cytotoxicity by measuring doxorubicin IC50 at 200 nM after 72 hrs by MTT assay (Rvb = 5.07 +/- 0.19 uM)
[16] = Inhibition of human ABCB1 expressed in NCI-ADR-RES cells assessed as potentiation of vincristine-induced cytotoxicity by measuring vincristine IC50 at 200 nM after 72 hrs by MTT assay (Rvb = 3714.80 +/- 383.58 nM)
[17] = Inhibition of human ABCB1 transfected in HEK293 cells assessed as potentiation of doxorubicin-induced cytotoxicity by measuring doxorubicin IC50 at 50 nM after 72 hrs by CCK8 assay (Rvb = 504.65 +/- 44.94 nM)
[18] = Inhibition of human ABCB1 expressed in KBV1 cells assessed as potentiation of doxorubicin-induced cytotoxicity by measuring doxorubicin IC50 at 500 nM after 72 hrs by MTT assay (Rvb = 5.07 +/- 0.19 uM)
[19] = Inhibition of human ABCB1 expressed in NCI-ADR-RES cells assessed as potentiation of doxorubicin-induced cytotoxicity by measuring doxorubicin IC50 at 100 nM after 72 hrs by MTT assay (Rvb = 5.54 +/- 0.60 uM)
[20] = Inhibition of human ABCB1 expressed in KBV1 cells assessed as potentiation of colchicine-induced cytotoxicity by measuring colchicine IC50 at 200 nM after 72 hrs by MTT assay (Rvb = 487.57 +/- 30.54 nM)
[21] = Inhibition of human ABCB1 expressed in KBV1 cells assessed as potentiation of colchicine-induced cytotoxicity by measuring colchicine IC50 at 100 nM after 72 hrs by MTT assay (Rvb = 487.57 +/- 30.54 nM)
[22] = Inhibition of human ABCB1 expressed in NCI-ADR-RES cells assessed as potentiation of doxorubicin-induced cytotoxicity by measuring doxorubicin IC50 at 500 nM after 72 hrs by MTT assay (Rvb = 5.54 +/- 0.60 uM)
[23] = Inhibition of human ABCB1 expressed in NCI-ADR-RES cells assessed as potentiation of colchicine-induced cytotoxicity by measuring colchicine IC50 at 500 nM after 72 hrs by MTT assay (Rvb = 1607.50 +/- 497.42 nM)
[24] = Inhibition of human ABCB1 expressed in NCI-ADR-RES cells assessed as potentiation of vincristine-induced cytotoxicity by measuring vincristine IC50 at 100 nM after 72 hrs by MTT assay (Rvb = 3714.80 +/- 383.58 nM)
[25] = Inhibition of human ABCB1 expressed in KBV1 cells assessed as potentiation of doxorubicin-induced cytotoxicity by measuring doxorubicin IC50 at 50 nM after 72 hrs by MTT assay (Rvb = 5.07 +/- 0.19 uM)
[26] = Inhibition of human ABCB1 expressed in KBV1 cells assessed as potentiation of vincristine-induced cytotoxicity by measuring vincristine IC50 at 50 nM after 72 hrs by MTT assay (Rvb = 277.68 +/- 56.61 nM)
[27] = Inhibition of human ABCB1 expressed in KBV1 cells assessed as potentiation of colchicine-induced cytotoxicity by measuring colchicine IC50 at 500 nM after 72 hrs by MTT assay (Rvb = 487.57 +/- 30.54 nM)
[28] = Inhibition of human ABCB1 expressed in NCI-ADR-RES cells assessed as potentiation of vincristine-induced cytotoxicity by measuring vincristine IC50 at 50 nM after 72 hrs by MTT assay (Rvb = 3714.80 +/- 383.58 nM)
[29] = Inhibition of human ABCB1 expressed in NCI-ADR-RES cells assessed as potentiation of doxorubicin-induced cytotoxicity by measuring doxorubicin IC50 at 50 nM after 72 hrs by MTT assay (Rvb = 5.54 +/- 0.60 uM)
[30] = Inhibition of human ABCB1 expressed in KBV1 cells assessed as potentiation of doxorubicin-induced cytotoxicity by measuring doxorubicin IC50 at 100 nM after 72 hrs by MTT assay (Rvb = 5.07 +/- 0.19 uM)
[31] = Inhibition of human ABCB1 expressed in NCI-ADR-RES cells assessed as potentiation of doxorubicin-induced cytotoxicity by measuring doxorubicin IC50 at 200 nM after 72 hrs by MTT assay (Rvb = 5.54 +/- 0.60 uM)
[32] = Inhibition of human ABCB1 expressed in NCI-ADR-RES cells assessed as potentiation of vincristine-induced cytotoxicity by measuring vincristine IC50 at 500 nM after 72 hrs by MTT assay (Rvb = 3714.80 +/- 383.58 nM)
[33] = Inhibition of human ABCB1 expressed in KBV1 cells assessed as potentiation of vincristine-induced cytotoxicity by measuring vincristine IC50 at 200 nM after 72 hrs by MTT assay (Rvb = 277.68 +/- 56.61 nM)

COc1cc2c(cc1OC)CN(CCc1ccc(NC(=O)c3cc(OC)c(OC)cc3NC(=O)c3cnc4ccccc4c3)cc1)CC2
IC50 [1]: 0.24 µM
IC50 [2]: 0.025 µM
IC50 [3]: 0.07 µM
IC50 [4]: 0.019 µM
IC50 [5]: 0.00066 µM
IC50 [6]: 0.025 µM

COc1ccc2cc1Oc1ccc(cc1)C[C@H]1c3cc(c(OC)cc3CCN1C)Oc1c(OC)c(OC)c(OC)c3c1[C@H](C2)N(C)CC3 [CHEBI:5677]
IC50 [7]: 0.1 µM
IC50 [8]: 0.076 µM
IC50 [9]: 0.044 µM
IC50 [10]: 38.3 µM
IC50 [11]: 1.01 µM
IC50 [12]: 0.0016 µM
IC50 [13]: 0.224 µM
IC50 [14]: 0.571 µM
IC50 [15]: 0.28 µM
IC50 [16]: 0.97 µM
IC50 [17]: 0.109 µM
IC50 [18]: 0.1 µM
IC50 [19]: 1.31 µM
IC50 [20]: 0.118 µM
IC50 [21]: 0.188 µM
IC50 [22]: 0.23 µM
IC50 [23]: 0.079 µM
IC50 [24]: 2.66 µM
IC50 [25]: 1.42 µM
IC50 [26]: 0.205 µM
IC50 [27]: 0.032 µM
IC50 [28]: 3.22 µM
IC50 [29]: 2.81 µM
IC50 [30]: 0.7 µM
IC50 [31]: 0.55 µM
IC50 [32]: 0.115 µM
IC50 [33]: 0.021 µM
